Reference: patent publication US20250084062A1, “SUBSTITUTED QUINOLINE DERIVATIVE” (ASTELLAS PHARMA INC., priority 2021, published 2025)
Structures can show the parent of a compound that is named as a salt. Where two headings read alike, the source gives them in different places.

Test system: acetylcholine receptor clustering in C2Cl2 cells
Test: Induction of acetylcholine receptor clustering in mouse myoblasts C2Cl2 cells (Test Example 1)
Type: cell-based
Conditions: for Emax / EC50: Mus musculus; for Emax: Myoblast, read-out: Max; for EC50: Myotube; for response, % at 30 μM: vs 10 ng/ml Agrin (100%)
Method: Test Example 1: Evaluation of the Induction of Acetylcholine Receptor Clustering in Mouse Myoblasts C2Cl2 Cells
Induction of acetylcholine receptor clustering by the test compound was evaluated by using fluorescently-labeled Bungarotoxin to image and quantify the acetylcholine receptor cluster region induced by the differentiation of myoblasts into myotubes, and measure the change in area. The following test method was optimized with reference to various reports including FEBS let., 586, 3111-3116 (2012). When a concentration response curve is obtained by plotting the logarithmic concentration of the test compound on the horizontal axis and the ratio of the area of acetylcholine receptor cluster region on the vertical axis, the inducing action of the test compound can be determined.
A concentration response curve as an index indicating acetylcholine receptor clustering inducing action of the test compound in mouse C2Cl2 cells was prepared. C2Cl2 cells (ATCC Number: CRL-1772) were seeded at about 5000 cells/well on a 384-well plate (354667; Corning) coated with type I collagen and allowed to incubate at 37 degrees Celsius overnight in DMEM+20% FBS+1% penicillin/streptomycin medium. The following day, the medium was removed and replaced with a differentiation medium containing DMEM+2% FBS+1% penicillin/streptomycin, and allowed to incubate at 37 degrees Celsius for 4 days. The test compound was dissolved in DMSO and added to a differentiation medium containing 0.1 ng/ml Agrin (550-AG-100; R&D systems) such that the final concentration was […] (3-fold serial dilution) or 0.00017 to 3.3 μM (3-fold serial dilution). The final concentration of DMSO was 0.3%. After the 4 days of incubation, the differentiation medium was replaced with a differentiation medium containing the test compound and 0.1 ng/ml Agrin or a differentiation medium containing 0.1 ng/ml Agrin or 10 ng/ml Agrin alone, and allowed to incubate at 37 degrees Celsius overnight. The next day, 10 μl of DMEM containing Bungarotoxin-Alexa488 (B13422; Life technologies) was added to the differentiation medium containing test compound and Agrin and Agrin alone so that the final concentration of Bungarotoxin-Alexa488 was 1 μg/ml, and was allowed to incubate at 37 degrees Celsius for 1 hour to label the acetylcholine receptor. After removing all the medium, 4% PFA was added to each well and allowed to incubate at room temperature for 10 minutes, then washed with PBS, and allowed to incubate at room temperature for 30 minutes in PBS containing 5% goat serum and 0.3% Triton X-100. After removing the PBS solution, PBS-Tween20 (28352; Thermo fisher scientific) containing Anti-Myosin Heavy Chain eFluor (registered trademark) 660 (50-6503-82; eBioscience) and DAPI (340-07971; Dojindo) was added to each well and allowed to incubate at room temperature for 1 hour to label the myotubes and nuclei. After washing three times with PBS-Tween20, the fluorescence was imaged using IN Cell Analyzer 6000 (GE Healthcare). […] The response of control group (1) was regarded as 0% and the response of the control group (2) was regarded as 100%. For quantification, the signal of only the acetylcholine receptor present in the myotube was used to eliminate non-specific fluorescence.
EC50 and Max value were used as indicators of activity in order to quantitatively evaluate the inducing action of the test compound on acetylcholine receptor clustering. EC50 value is a test compound concentration which indicates 50% in terms of the area of acetylcholine receptor cluster region compared to that of 10 ng/ml Agrin (regarded as 100%) in the concentration response curve. EC50 was calculated by nonlinear regression analysis from the concentration response curve using the area of the cluster region of the test compound as an index. Max value is the maximum response value. […]

[1] = maximum response, area of acetylcholine receptor cluster region vs 10 ng/ml Agrin (100%), 0.1 ng/ml Agrin = 0%
[2] = C2Cl2 myotubes, with 0.1 ng/ml Agrin, concentration giving 50% of cluster area of 10 ng/ml Agrin (100%), read-out: EC50

Row | SMILES | EC50 [2] [nM] | Emax [1] [%] | Emax [%] | EC50 [nM] | response, % at 30 μM [% at 30 μM]
1 | Cc1c(F)c(-c2c(F)cc(S(=O)(=O)N3CCCC3)cc2F)nc2cc(C(=O)O)ccc12 [Example 23] | 69 | 85.9 |  |  | 
2 | Cc1cc(-c2ccc(S(=O)(=O)N3CCCCC3)cc2)nc2cc(C(=O)O)ccc12 [Example 47] | 428 | 102 |  |  | 
3 | Cc1c(F)c(-c2c(F)cc(S(=O)(=O)N3CCC[C@@H]3C)cc2F)nc2cc(C(=O)O)ccc12 [Example 24] | 11 | 92.3 |  |  | 
4 | Cc1cc(-c2ccc(S(=O)(=O)N3CCC[C@H]3CO)cc2F)nc2cc(C(=O)O)ccc12 [Example 48] | 3750 | 74 |  |  | 
5 | Cc1cc(-c2c(F)cc(S(=O)(=O)N3CC[C@H](F)C3)cc2F)cc2cc(C(=O)O)ccc12 [Example 67] |  |  | 94.3 | 15 | 
6 | Cc1c(F)c(-c2c(F)cc(S(=O)(=O)N3CC[C@H](F)C3)cc2F)nc2cc(CCN)ccc12 [Example 56] | 53 | 97 |  |  | 
7 | CNCCNC(=O)c1ccc2c(C)cc(-c3c(F)cc(S(=O)(=O)N4CCC(F)CC4)cc3F)nc2n1 [Example 60] | 11 | 99.2 |  |  | 
8 | Cc1cc(-c2c(F)cc(S(=O)(=O)N3CCC(F)CC3)cc2F)nc2nc(C(=O)N3CC4(CN(C)C4)C3)ccc12 [Example 46] | 43 | 80.9 |  |  | 
9 | Cc1cc(-c2c(F)cc(S(=O)(=O)N3CC[C@H](F)C3)cc2F)nc2nc(C3=CCNCC3)ccc12 [Example 62] |  |  | 86.4 | 1 | 
10 | Cc1c(F)c(-c2c(F)cc(S(=O)(=O)N3CC[C@H](F)C3)cc2F)nc2cc(C(=O)NC(C)(C)CC(=O)O)ccc12 [Example 54] | 1490 | 60.8 |  |  | 
11 | Cc1cc(-c2c(F)cc(S(=O)(=O)N3CC[C@H](F)C3)cc2F)nc2cc(C(=O)NCCN(C)C)ccc12 [Example 43] | 21 | 91.6 |  |  | 
12 | Cc1c(F)c(-c2c(F)cc(S(=O)(=O)N3CCCC34CC4)cc2F)nc2cc(C(=O)O)ccc12 [Example 25] | 182 | 105 |  |  | 
13 | Cc1cc(-c2ccc(S(=O)(=O)N3CC[C@H](F)C3)cc2CO)nc2cc(C(=O)O)ccc12 [Example 31] |  | 48.8 |  |  | 48.8
14 | COc1cc(S(=O)(=O)N2CC[C@H](F)C2)cc(F)c1-c1cc(C)c2ccc(C(=O)O)nc2c1 [Example 8, 7-{2-fluoro-4-[(3S)-3-fluoropyrrolidine-1-sulfonyl]-6-methoxyphenyl}-5-methylquinoline-2-carboxylic acid] | 45 | 88.2 |  |  | 
15 | CNCCCc1ccc2c(C)c(F)c(-c3c(F)cc(S(=O)(=O)N4CC[C@H](F)C4)cc3F)nc2c1 [Example 16, 3-(2-{2,6-difluoro-4-[(3S)-3-fluoropyrrolidine-1-sulfonyl]phenyl}-3-fluoro-4-methylquinolin-7-yl)-N-methylpropan-1-amine hydrochloride] | 45 | 91.1 |  |  | 
16 | COCc1cc(S(=O)(=O)N2CC[C@H](F)C2)ccc1-c1cc(C)c2ccc(C(=O)O)cc2n1 [Example 32] |  | 38.8 |  |  | 38.8

Now from value to compound, other results behind:

Row | EC50 [2] [nM] | SMILES | Emax [1] [%] | Emax [%] | EC50 [nM] | response, % at 30 μM [% at 30 μM]
17 | 103 | Cc1cc(-c2ccc(S(=O)(=O)N3C[C@@H](F)[C@H](F)C3)cc2F)nc2cc(C(=O)O)ccc12 [Example 27] | 94.6 |  |  | 
18 | 33 | Cc1cc(-c2c(F)cc(S(=O)(=O)N3CC[C@H](F)C3)cc2F)nc2cc(C(=O)NC[C@H]3COCCN3)ccc12 [Example 52] | 94.2 |  |  | 
19 | 65 | Cc1cc(-c2c(F)cc(S(=O)(=O)N3CC[C@H](F)C3)cc2F)nc2nc(C3CCN(C)CC3)ccc12 [Example 17, 2-{2,6-difluoro-4-[(3S)-3-fluoropyrrolidine-1-sulfonyl]phenyl}-4-methyl-7-(1-methylpiperidin-4-yl)-1,8-naphthyridine hydrochloride] | 78.7 |  |  | 
20 | 96 | Cc1cc(-c2c(F)cc(S(=O)(=O)N3CC[C@H](F)C3)cc2F)nc2cc(C(=O)NC3CCNC3)ccc12 (some centres unmarked) [Example 53] | 77.9 |  |  | 
21 | 49 | CNCCN(C)C(=O)c1ccc2c(C)cc(-c3c(F)cc(S(=O)(=O)N4CC[C@H](F)C4)cc3F)nc2c1 [Example 59] | 95.8 |  |  | 
22 | 89 | Cc1c(F)c(-c2c(F)cc(S(=O)(=O)N3CC[C@H](F)C3)cc2F)nc2cc(C3CCNCC3)ccc12 [Example 57] | 87 |  |  | 
23 | 16 | CNCCNC(=O)c1ccc2c(C)cc(-c3c(F)cc(S(=O)(=O)N4CC[C@H](F)C4)cc3F)nc2c1 [Example 10, 2-{2,6-difluoro-4-[(3S)-3-fluoropyrrolidine-1-sulfonyl]phenyl}-4-methyl-N-[2-(methylamino)ethyl]quinoline-7-carboxamide hydrochloride] | 96.7 |  |  | 
24 | 392 | Cc1cc(-c2c(F)cc(S(=O)(=O)N3CC[C@H](F)C3)cc2F)nc2nc(C3=CCC(C(=O)O)CC3)ccc12 (some centres unmarked) [Example 36] | 80.2 |  |  | 
25 | 1900 | Cc1cc(-c2c(F)cc(S(=O)(=O)N3CC[C@@H](F)C3)cc2F)nc2cc(C(=O)O)ccc12 [Example 22] | 84.8 |  |  | 
26 | 24 | Cc1cc(-c2ccc(S(=O)(=O)N3CC[C@H](F)C3)cc2F)nc2cc(OC[C@@H](O)CO)ccc12 [Example 64] | 107 |  |  | 
27 | 1820 | Cc1cc(-c2c(F)cc(S(=O)(=O)N3CC[C@H](F)C3)cc2F)nc2nc(OCC(=O)O)ccc12 [Example 6, [(7-{2,6-difluoro-4-[(3S)-3-fluoropyrrolidine-1-sulfonyl]phenyl}-5-methyl-1,8-naphthyridin-2-yl)oxy]acetic acid] | 76.3 |  |  | 
28 | 2 | CNCCNC(=O)c1ccc2c(C)cc(-c3c(F)cc(S(=O)(=O)N4CC[C@H](F)C4)cc3F)c(F)c2n1 [Example 15, 7-{2,6-difluoro-4-[(3S)-3-fluoropyrrolidine-1-sulfonyl]phenyl}-8-fluoro-5-methyl-N-[2-(methylamino)ethyl]quinoline-2-carboxamide hydrochloride] | 105 |  |  | 
29 | 52 | Cc1cc(-c2c(F)cc(S(=O)(=O)N3CCC(F)CC3)cc2F)nc2cc(C(=O)NC3CN(C)C3)ccc12 [Example 41] | 87 |  |  | 
30 | 7160 | Cc1cc(-c2ccc(S(=O)(=O)N3CC[C@H](F)C3)cc2F)nc2c(F)c(N3CCNCC3=O)ccc12 [Example 55] | 38.9 |  |  | 
31 | 13 | Cc1cc(-c2c(F)cc(S(=O)(=O)N3CCC(F)CC3)cc2F)nc2cc(C(=O)N3CC(N)C3)ccc12 [Example 4, (3-aminoazetidin-1-yl) {2-[2,6-difluoro-4-(4-fluoropiperidine-1-sulfonyl)phenyl]-4-methylquinolin-7-yl}methanone] | 81 |  |  | 
32 | 159 | Cc1cc(S(=O)(=O)N2CC[C@H](F)C2)ccc1-c1nc2cc(C(=O)O)ccc2c(C)c1F [Example 51] | 77.8 |  |  | 
33 | 10 | Cc1cc(-c2c(F)cc(S(=O)(=O)N3CC[C@H](F)C3)cc2F)cc2nc(N3CCNCC3)ccc12 [Example 66] | 88.4 |  |  | 
34 | 1850 | Cc1cc(-c2ccc(S(=O)(=O)N3CC[C@H](F)C3)cc2F)nc2c(F)c(C(=O)O)ccc12 [Example 7, 8-fluoro-2-{2-fluoro-4-[(3S)-3-fluoropyrrolidine-1-sulfonyl]phenyl}-4-methylquinoline-7-carboxylic acid] | 78.4 |  |  | 
